The values below come from patent publication EP3628663A1, “ANTIVIRAL COMPOUNDS” (priority 2018, dated 2020).

Like-named read-outs stand apart in the source and are kept apart here.

For one assay, the target named is WW3-NEDD 4.1 peptide (Homo sapiens, UniProt P46934). Description: MicroScale thermophoresis (MST) binding to FAM-labelled WW3 peptide of NEDD4.1. On the procedure:
(§1) For the MicroScale Thermophoresis (MST) experiments 1 mg of each FAM-labeled WW3_Nedd.4.1 ([…] KIPAH = SEQ ID NO: 1) and WW3_Nedd.4.2 peptide ([…] […] = SEQ ID NO: 2) (FAM = Fluorescein amidite) was used at >80% purity.
(§2) MicroScale thermophoresis binding experiments were carried out with final 100 nM FAM-labelled WW3_Nedd.4.1 and WW3_Nedd.4.2 in binding buffer (1x PBS pH 7.4, 5 % DMSO, 0.1 % Pluronic F-127). The concentration range of the compound of formula (IIIa) is indicated here-after: Table 1
(§3) The MST analyses were performed at 40 % MST power, 100 % LED power in standard capillaries on a Monolith NT.115 blue/green device at 25°C (NanoTemper Technologies, Munich, Germany) in duplicate technical runs in the same capillary. Thermophoresis + Tjump was analysed. The recorded fluorescence was normalised to fraction bound (0 = unbound, 1 = bound), and processed using the GraphPad Prism® 6 software and fitted using the KD fit formula derived from the law of mass action.
(In MST a laser heats a spot of the sample, and binding alters the fluorescence response.)

The next assay deals with WW3-NEDD 4.2 peptide (Homo sapiens, UniProt Q96PU5). In words: MicroScale thermophoresis (MST) binding to FAM-labelled WW3 peptide of NEDD4.2. As to conditions: 100 nM FAM-labelled peptide, 1x PBS pH 7.4, 5 % DMSO, 0.1 % Pluronic F-127, 25°C. On the procedure:
as §1, §2, §3

Another assay deals with U2OS cells. Description: Ubiquitin proteome by diGly peptide enrichment and LC-MS/MS. The format is cell-based, Homo sapiens. Particulars: 24h, compared to DMSO treated control cells. On the procedure:
U2OS Cells were treated for 24h with two different concentrations of the compound of formula (IIIa) (2µM and 10µM) and were subjected to Mass Spec. analysis following diGly peptide enrichment to obtain changes in the Ubiquitin proteome.
Briefly, cells were collected following treatment (as above) and protein extracts generated using acetone precipitation. Total proteins were trypsin-digested and the resulting peptides purified through anti di-Gly affinity chromatography prior being sequenced by LC-MS/MS.

Another assay concerns the target T1, recombinant NEDD4.2 (Homo sapiens, UniProt Q96PU5).
T1 sequence (Q96PU5 1-975): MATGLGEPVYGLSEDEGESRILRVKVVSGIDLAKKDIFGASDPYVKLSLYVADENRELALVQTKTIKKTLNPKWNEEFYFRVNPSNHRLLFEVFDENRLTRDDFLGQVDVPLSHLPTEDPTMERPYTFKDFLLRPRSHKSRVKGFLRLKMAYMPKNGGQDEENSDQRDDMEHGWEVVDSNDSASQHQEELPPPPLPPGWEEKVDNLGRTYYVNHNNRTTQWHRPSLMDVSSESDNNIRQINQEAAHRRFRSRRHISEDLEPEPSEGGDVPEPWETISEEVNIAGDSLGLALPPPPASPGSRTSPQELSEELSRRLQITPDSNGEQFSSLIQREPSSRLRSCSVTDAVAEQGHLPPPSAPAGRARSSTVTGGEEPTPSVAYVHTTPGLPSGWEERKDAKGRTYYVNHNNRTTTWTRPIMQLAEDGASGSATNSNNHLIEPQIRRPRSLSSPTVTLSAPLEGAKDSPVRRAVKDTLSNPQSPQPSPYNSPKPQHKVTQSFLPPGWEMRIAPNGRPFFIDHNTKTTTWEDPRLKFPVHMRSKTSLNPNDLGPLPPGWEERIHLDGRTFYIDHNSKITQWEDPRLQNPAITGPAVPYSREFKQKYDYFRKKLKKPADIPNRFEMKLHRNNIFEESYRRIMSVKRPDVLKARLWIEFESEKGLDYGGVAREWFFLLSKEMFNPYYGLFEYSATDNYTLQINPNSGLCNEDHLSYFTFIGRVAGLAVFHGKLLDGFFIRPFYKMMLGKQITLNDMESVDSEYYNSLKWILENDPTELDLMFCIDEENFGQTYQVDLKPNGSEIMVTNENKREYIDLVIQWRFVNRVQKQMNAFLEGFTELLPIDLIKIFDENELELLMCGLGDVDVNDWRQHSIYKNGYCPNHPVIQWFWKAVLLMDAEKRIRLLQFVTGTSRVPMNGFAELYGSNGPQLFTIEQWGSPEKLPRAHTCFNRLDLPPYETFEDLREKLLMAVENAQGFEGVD
In words: In vitro ubiquitylation of protein VI released from adenovirus particles with recombinant NEDD4.2. As to conditions: high concentrations (25 µM); recombinant NEDD4.2, 1h at 30°C. The format is biochemical. On the procedure: For in vitro ubiquitylation reactions, purified Adenovirus particles were treated with mild heat to release protein VI as previously described in Wodrich et al. (2010 - PLoS Pathog. 6, e1000808), and in vitro ubiquitylation reactions were supplemented with recombinant NEDD4.2 and DMSO or the compound of formula (IIIa) and carried out for 1h at 30°C or left on ice.
(§4) Samples were analyzed by western blot using anti-protein VI antibodies described in Martinez et al., J Virol. 2015 Feb;89(4):2121-35.

The target of a further assay is T2, WW3-domain of NEDD4 (Homo sapiens, UniProt P46934).
T2 construct: a peptide corresponding to the 45 amino acids of WW3-domain of NEDD4; made in house; host or cells: chemical synthesis
T2 sequence (P46934 834-878): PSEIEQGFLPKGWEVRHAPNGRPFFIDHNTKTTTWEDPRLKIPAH
In words: Solution NMR interaction study with synthetic WW3-domain peptide of NEDD4. As to conditions: equimolar amounts of compound and NEDD4 peptide. It is filed as binding.

The next assay deals with GFP-NEDD4.1. Description: Localization of GFP-NEDD4.1 in U2OS cells (fluorescence microscopy). The format is cell-based, Homo sapiens. Particulars: U2OS cells stably expressing GFP-NEDD4.1, versus DMSO. The text has this: (§5) U2OS cells (ATCC® HTB-96™) (Homo sapiens bone osteosarcoma) stably expressing low levels of GFP-NEDD4.1 or GFP-NEDD4.2 were generated through single copy flp-FRT integration (Bosse et al., Methods Mol Biol. 2013;1064:153-69.) and treated with the compound of formula (IIIa) or the control DMSO.

For a further assay, the system named is protein VI. In words: Ubiquitylation of RFP-tagged protein VI in NEDD4.2-GFP expressing cells (RFP-trap, western blot). Particulars: increasing amounts (0, 2, 5, 10, 25 µM) for 2h; NEDD4.2-GFP cells. The format is cell-based. On the procedure:
Stably expressing NEDD4.2-GFP cells were transfected with an expression vector encoding RFP-tagged protein VI WT (including the PPxY targeted by NEDD4 ubiquitin ligases through WW-domains, which are the target of the compounds) or protein VI M1 (with the PPxY targeted by NEDD4 ubiquitin ligases through WW-domains mutated to PGAA) and treated with increasing amounts of the compound of formula (IIIa) for 2h. RFP stands for Red Fluorescent Protein.
Protein VI was immunoprecipitated from drug treated cells using RFP-trap and analyzed by western blotting with anti-ubiquitin antibodies.
as §4
For orientation: Immunoblotting shows a protein as a band on a membrane.

A further assay relates to NEDD4.2-GFP. In words: Association of incoming fluorescently labelled adenoviruses with NEDD4.2-GFP (fluorescence microscopy). It is filed as cell-based, Homo sapiens. Particulars: 10µM; 15-30 min p.i. On the procedure:
GFP-NEDD4.2 expressing cells were infected in absence or presence of 10µM of the compound of formula (IIIa) with fluorescently labelled viruses and association between viruses and NEDD4.2-GFP was quantified using fluorescence microscopy.

A further assay has as its system GFP-NEDD4.2. In words: Localization of GFP-NEDD4.2 in U2OS cells (fluorescence microscopy). The format is cell-based, Homo sapiens. As to conditions: U2OS cells stably expressing GFP-NEDD4.2, versus untreated cells.
From the text: as §5

The subject of the next assay is HAd-C5-GFP. In words: Fluorescent plaque forming assay of adenoviral propagation (virus spread). The format is cell-based. As to conditions: HEK293 cells. The protocol: Adenoviral propagation was quantified by fluorescent plaque forming assay with GFP expressing HAd-C5 vector in the presence of the compound as a measure of virus spread through multiple rounds of infection.
HEK293 cells were infected with 0.1 physical particles per cell (pp/cell) of E1-deficient GFP expressing HAd-C5-GFP vector for 24 hours followed by removal of the inoculums and overlay with 1% agarose supplemented with vehicle only (DMSO) or 5 µM of the compound of formula (IIIa).
Six days after infection, plaque sizes were measured by epifluorescence microscopy using Image J.
Cidofovir™, the standard clinical drug used against adenovirus infections in the clinic, is also included in this test.
The compounds were used at a concentration of 5 µM. Cidofovir was in particular used at even higher concentration, i.e. 10 and 20 µM.
DMSO was used as negative control.
Statistical analysis was carried out using unpaired Student t-test.

Sequence of WW3-NEDD 4.1 peptide (P46934 834-878): as above
Sequence of WW3-NEDD 4.2 peptide (Q96PU5 with tags, fused parts or gaps): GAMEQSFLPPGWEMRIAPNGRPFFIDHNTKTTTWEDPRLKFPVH

The term Kd denotes the equilibrium constant for the complex coming apart. Take `c1c[nH]cn1` [Imidazole (control), Imidazole, reference compound]: the figures for the Kd at WW3-NEDD 4.1 peptide and at WW3-NEDD 4.2 peptide were 88.9 ± 28.4 µM and 90.4 ± 38.6 µM, respectively.

As to `O=C(/C=C(\C(=O)c1ccc(Cl)cc1Cl)n1ccnc1)c1ccc(Cl)cc1Cl` [Compound of formula (IIIa), (E)-1,4-Bis(2,4-dichlorophenyl)-2-(1H-imidazol-1-yl)but-2-ene-1,4-dione], the Kd at WW3-NEDD 4.1 peptide (MST, 100 nM FAM-labelled peptide, 1x PBS pH 7.4, 5 % DMSO, 0.1 % Pluronic F-127, 25°C, read-out: WW3-NEDD 4.1 peptide KD) worked out at 0.058 ± 0.022 µM; at WW3-NEDD 4.2 peptide, 0.12 ± 0.039 µM. Also, at WW3-NEDD 4.1 peptide (ratio of MST KD values, WW3-NEDD4.1 and WW3-NEDD4.2), the “higher affinity to the WW3 peptide domain target compared to the Imidazole control” value is 100-1000 fold. Moreover, the “ubiquitylation of cellular proteins” value is recorded as “protein ubiquitylation is reduced or increased for several cellular proteins” with U2OS cells (2µM) and “preferentially increases ubiquitylation of several cellular proteins” in the assay with U2OS cells (10µM). For the same compound, the “protein VI ubiquitylation in vitro” value on recombinant NEDD4.2 is reported as “prevented protein VI ubiquitylation in vitro”. Also, the “interaction with the NEDD4 peptide (NMR chemical shift change)” value on WW3-domain of NEDD4 is given as “interacts with the NEDD4 peptide”. Also, in the assay with GFP-NEDD4.1, the NEDD4.1 localization result is “became largely immobile and relocated to a perinuclear region”. For the same compound, the “ubiquitylation of protein VI in cells” value with protein VI is given as “gradually impaired ubiquitylation of protein VI”. For the same compound, in the assay with NEDD4.2-GFP, the “recruitment of NEDD4.2 to incoming AdV particles” value is “prevented the recruitment of NEDD4.2”. The NEDD4.2 localization result in the assay with GFP-NEDD4.2 is reported as “accumulated strongly at cell-cell-contact sites as well as in a distinct perinuclear region”. Further, the “anti-adenoviral activity (plaque size)” value in the assay on HAd-C5-GFP (5 µM, 0.1 pp/cell HAd-C5-GFP, plaque size six days after infection, compared to DMSO) was “effective anti-adenoviral activity”.

Regarding `Nc1ccn(C[C@@H](CO)OCP(=O)(O)O)c(=O)n1` [Cidofovir, reference compound], the “inhibition of adenoviral propagation (plaque size)” value in the assay on HAd-C5-GFP (10 µM and 20 µM (highest non-cytotoxic concentrations), plaque size) is given as “did not show significant inhibition”.
